Measurements published in PMC10821532, “Sex and Cross-Sex Testosterone Treatment Alters Gamma-Hydroxybutyrate Acid Toxicokinetics and Toxicodynamics in Rats” (Pharmaceutics, 2024).

Legend:
[1] = GHB toxicokinetic study, i.v. bolus, plasma and urine up to 8 h, noncompartmental analysis; assay type: in vivo, Sprague Dawley rats; details: 1 mg/kg AR-C 155858 iv 5 min after 1500 mg/kg GHB iv vs GHB alone
Method: (§1) Male and female Sprague Dawley (SD) rats, ovariectomized (OVX) females, and castrated (CST) males were obtained from Charles River (Wilmington, MA, USA) at 8 weeks of age. The animals were housed under controlled temperature and humidity with an artificial 12 h light/dark cycle, and food and water were available ad libitum. The animals were acclimatized for at least one week before experiments. Hormone treatment was conducted by implanting OVX female and CST male rats subcutaneously with 60-day release pellets containing 7.5 mg testosterone or corresponding placebo pellets (Innovative Research of America) at 10 weeks of age. After 21 days of hormone exposure, rats were utilized in toxicokinetic studies. Age-matched male and female rats were used as control groups. Female rats in the estrus stage were selected for the study. Estrus cycle stages of female rats were monitored daily by vaginal lavage smear, as described in previously published literature. The Institutional Animal Care and Use Committee (IACUC) at the University of the Pacific approved all experiments.
(§2) Jugular vein cannulas were surgically implanted under anesthesia with ketamine/xylazine. Cannulas were flushed daily with heparinized saline to maintain patency. Rats were allowed a minimum of 72 h for recovery from surgery before the experiments were conducted. GHB was administered intravenously as a 1000 mg/kg i.v. bolus or 1500 mg/kg iv bolus with or without AR-C155858 (1 mg/kg i.v. bolus) via a jugular vein cannula to the animals at 13 weeks of age (N = 5–7 per group). Rats were dosed in metabolic cages with ad libitum access to water to allow for the concurrent collection of blood and urine samples for up to 8 h. GHB was administered as a 300 mg/mL solution in sterile water, and the time of administration was considered as time 0. AR-C155858 was administered as a 1 mg/mL solution in 10% cyclodextrin in normal saline 5 min after GHB administration. Blood samples (200 μL) were taken from the jugular vein cannula at different time points: 5, 10, 20, 30, 60, 90, 120, 180, 240, 270, 300, and 330 min for 1000 mg/kg and 10, 30, 60, 90, 120, 180, 240, 270, 300, 330, 360, and 390/480 min for 1500 mg/kg bolus with or without AR-C155858. Plasma samples were separated by centrifugation and stored at −20 °C. Urine samples were collected at 120, 240, and 360 min for 1000 mg/kg and 120, 240, and 390/480 min for 1500 mg/kg bolus with or without AR-C155858 post-dose; the total urine volume was determined, and the samples were stored at −20 °C.
GHB in plasma and urine were quantified using a validated liquid chromatography/tandem mass spectrometry (LC/MS/MS) assay that was described previously. Briefly, for the preparation of plasma standards and quality controls (QCs), 5 μL of GHB-d6 and 5 μL of standard stock solution or QC stock solution were added to 45 μL of blank plasma. For each unknown plasma sample, 5 μL of GHB-d6 was added to 50 μL of plasma. Protein precipitation was then performed by the addition of 800 μL of acetonitrile with 0.1% formic acid, followed by centrifugation at 10,000 rpm for 20 min. 750 μL of the supernatant was transferred to a clean disposable glass tube and evaporated using a MultiVap Nitrogen Evaporator (Organomation, Berlin, MA, USA) under a nitrogen stream. Dried samples were reconstituted in 250 μL of 95:5 double-distilled water—acetonitrile with 0.1% acetic acid. For urine standards and QCs, 25 μL of blank urine, 5 μL of standard or QC stock solution, 5 μL of GHB-d6, and 465 μL of double-distilled water were mixed. For unknown urine samples, 25 μL of the sample was added to 5 μL of GHB-d6 and 470 μL of double-distilled water. The same LC/MS/MS method was used for GHB plasma and urine analyses. LC/MS/MS equipment consisted of an Agilent 1200 series UPLC consisting of an online degasser, binary pump, and autosampler (Agilent Technologies, Santa Clara, CA, USA) connected to a Agilent 6460 Triple Quad Mass Spectrometer. […]

Sprague Dawley (SD) rats = assay: Sedative/hypnotic effect (sleep time, RRR-LRR) after i.v. GHB; assay type: in vivo
Method: as §2
The sedative/hypnotic effects (sleep time) were determined, as described in a previous publication. The sedative/hypnotic duration effect of GHB was determined as the difference between the offset of the sedative/hypnotic effect (RRR) and the onset of the sedative/hypnotic effect (LRR).

MCT2 = molecular target: MCT2; parameters: method as in PMID 19929853; details: cited from earlier work
MCT4 = test system: MCT4; parameters: method as in PMID 19929853; details: cited from earlier work
[2] = Plasma testosterone level after 21 days of testosterone pellet treatment (LC-MS); assay type: in vivo, Sprague Dawley rats; details: Sprague Dawley, rat, sc, 7.5 mg 60-day release testosterone pellet s.c.
Method: as §1
Testosterone plasma concentrations were quantified using a validated LC-MS assay, as described previously. […] The same LC/MS/MS equipment was used for quantification, as mentioned above. […]

Compound | Effect of AR-C 155858 on GHB fe [1] | Effect of AR-C 155858 on GHB metabolic clearance [1] | Effect of AR-C 155858 on GHB renal clearance [1] | Effect of AR-C155858 on GHB AUC ([1]; all animal groups) | Effect of AR-C155858 on GHB total clearance ([1]; all animal groups) | Effect of AR-C 155858 on GHB sleep time (Sprague Dawley (SD) rats; 1 mg/kg AR-C 155858 iv 5 min after 1500 mg/kg GHB iv vs GHB alone) | Sleep time after AR-C 155858 administration (Sprague Dawley (SD) rats; 1500 mg/kg GHB iv + 1 mg/kg AR-C 155858 iv 5 min after GHB, all populations) [min] | Ki (MCT2) [nM] | Inhibitory effect on MCT4 (MCT4) | concentration at 21 days ([2]; female, OVX rats) [ng/mL] | concentration at 21 days ([2]; male, CST rats) [ng/mL]
Cc1n[nH]c(C)c1Cc1sc2c(c1C(=O)N1C[C@H](O)CO1)c(=O)n(C)c(=O)n2CC(C)C [AR-C 155858, 6-[(3,5-Dimethyl-1H-pyrazol-4-yl)methyl]-5-[[(4S)-4-hydroxy-2-isoxazolidinyl]carbonyl]-3-methyl-1-(2-methylpropyl)thieno [2,3-d]pyrimidine-2,4(1H,3H)-dione] | significantly increased fe in testosterone-treated animal groups | did not yield any statistically significant differences in metabolic clearance across all animal groups, except in intact males | statistically significant increase in renal clearance across all animal groups, except for intact males | lower AUC | higher total clearance | significant reduction in sleep time across all animal groups | 0 to 38 | ~10 | no inhibitory effect on MCT4 | – | –
C[C@]12CC[C@H]3[C@@H](CCC4=CC(=O)CC[C@@]43C)[C@@H]1CC[C@@H]2O [Testosterone, testosterone] | – | – | – | – | – | – | – | – | – | 6.22 ± 2.63 | 5.44 ± 1.96
